The test system of one test is E. coli BL21(DE3) SSO. The experiment in a line: Growth of chromosomal UBP integrants with or without dNaMTP and dTPT3TP (doubling time). The following applies: ΔrecA-Opt and Pol II+ΔrecA integrants, dNaMTP and dTPT3TP provided together in media. The format is cell-based. On the procedure:
Mid-log phase cells WT-Opt, ΔrecA-Opt, and Pol II^+ΔrecA-Opt SSOs and their corresponding chromosomal UBP integrants (described above) were prepared using the following procedure. Saturated overnight cultures were prepared by inoculation of 2×YT containing chloramphenicol (5 μg/mL), dTPT3TP (37.5 μM), dNaMTP (150 μM), and KPi (50 mM, pH 7) from glycerol stock stabs and overnight growth (approximately 14 h) at 37° C. at 230 RPM. These cells were diluted to 0.03 OD600 in 500 μL 2×YT containing chloramphenicol (5 μg/mL), dTPT3TP (37.5 μM), dNaMTP (150 μM), and KPi (50 mM, pH 7) and grown at 37° C. at 230 RPM. Growth was monitored by OD600. Once cells reached mid-log phase (0.3-0.5 OD600), they were diluted to 0.013 OD600 in 500 μL 2×YT containing chloramphenicol (5 μg/mL), dTPT3TP (37.5 μM), dNaMTP (150 μM), and KPi (50 mM, pH 7) or 2×YT containing chloramphenicol (5 μg/mL) and KPi (50 mM, pH 7) in a 48-well plate and grown at 37° C. at 230 RPM. OD600 was measured every 30 min. This procedure was performed in triplicate for each strain starting from inoculation of overnight cultures.
OD600 data from each experiment was analyzed to obtain a theoretical cell doubling time (FIG. 2B and FIGS. 8A-8B). […]
Where ODi is the OD600 at time (t), OD0 is minimum OD600 value for a given data set, and CGrowth is the growth constant. […] Doubling times (DT) were calculated using the following equation: […]

The subject of a further test is OneTaq DNA Polymerase. The experiment in a line: PCR amplification of long DNAs (overlap assembly PCR). The format is biochemical. The note with it: presence of dTPT3TP in PCR. On the procedure:
The UBP knock-in cassette for the arsB locus (FIGS. 7A-7C) was produced through overlapping PCR of a 150-bp dsDNA containing a UBP and the kanamycin resistance gene of pKD13. The 150 bp DNA was produced with a 50-μL PCR using the same reaction solution conditions as above and the following temperature regime (time in mm:ss): [98° C. 02:00|5×(98° C. 00:10|50° C. 00:10|68° C. 04:00)|15×(98° C. 00:10|58° C. 00:10|68° C. 04:00)]. The kanamycin resistance gene amplicon was produced through PCR amplification off pKD13 using Q5 DNA polymerase as per manufacturer recommendations. The amplification of long DNAs (approximately 200 bp or longer) is inhibited by the presence of dTPT3TP. Therefore, the overlap assembly PCR of the UBP containing amplicon and kanamycin resistance gene amplicon was performed on large-scale (2 mL of reaction mixture split into 40 individual 50-μL reactions) with the following solution conditions: UBP containing amplicon (0.02 ng/μL), kanamycin resistance gene amplicon (0.02 ng/μL), primers (1 μM), dTPT3TP (5 μM), dNaMTP (100 μM), dNTPs (200 μM), MgSO4 (1.2 mM), OneTaq DNA Polymerase (0.025 U/μL), and OneTaq Standard Reaction Buffer (1 x). The reactions were subjected to the following temperature regime (time in mm:ss): [98° C. 02:00|5×(98° C. 00:10|50° C. 00:10|68° C. 04:00)|15×(98° C. 00:10|58° C. 00:10|68° C. 04:00)]. […]

The structures appear in SMILES notation.

For the molecule `COc1cc2ccccc2cc1[C@H]1C[C@H](O)[C@@H](COP(=O)(O)OP(=O)(O)OP(=O)(O)O)O1` [dNaMTP, triphosphate of dNaM], the “Growth defect of chromosomal UBP integrants” value in the test with E. coli BL21(DE3) SSO was “almost entirely eliminated”.

In the case of `O=P(O)(O)OP(=O)(O)OP(=O)(O)OC[C@H]1O[C@@H](n2ccc3ccsc3c2=S)C[C@@H]1O` [dTPT3TP], in the test on OneTaq DNA Polymerase, the “Amplification of long DNAs (approximately 200 bp or longer)” value is recorded as “inhibited”. The “Growth defect of chromosomal UBP integrants” value in the test on E. coli BL21(DE3) SSO was “almost entirely eliminated”.

For the origin of these results see US12173291B2, “Unnatural base pair compositions and methods of use” (THE SCRIPPS RESEARCH INSTITUTE, priority 2017, dated 2024).
